Laboratory results: patent US8765748B2, “Indazolyl, benzimidazolyl, benzotriazolyl substituted indolinone derivatives as kinase inhibitors useful in the treatment of cancer” (University Health Network, priority 2007, dated 2014)
Entries after “also recorded” stand apart in the source; their conditions may differ.

Experiments:
PLK2 = target: T1, PLK2 (Homo sapiens, UniProt Q9NYY3); assay: PLK2 Inhibition Assay (Z-Lyte); format: biochemical; details: 10 μM compound; read-out: PLK2 relative inhibition percentage at a dose of 10 μM
T1 construct: purchased Invitrogen PV4204
Procedure: (§1) PLK2 inhibition was determined using the Z-Lyte assay kit from Invitrogen (cat #PV3802). The assay was performed using the recommended manufacturer's instructions with 60 μM ATP and 133 nM PLK2 (Invitrogen cat #PV4204). The % inhibition values were determined according to the manufacturer's directions and IC50 values were obtained using a non-linear 4 point logistic curve fit (XLfit4, IDBS)

Abl = Abl (Homo sapiens, UniProt P00519); assay: Millipore kinase assay, radiolabelled phosphopeptide filter binding, IC50 estimate; format: biochemical; design: purchased Millipore (assay service); details: estimated from inhibition at three compound concentrations; ATP at the Km
Procedure: (§2) Kinase assays at Millipore were performed using a radiolabelled phosphopeptide filter binding detection system, in duplicate, at each compound concentration. The ATP substrate concentration in the reactions was at the Km for each enzyme.
(§3) To allow for a more direct comparison of compound inhibition, an IC50 value was estimated from the inhibition determined at three compound concentrations. Several assumptions were made to allow this calculation using a 4 parameter non linear curve fit model, including full inhibition set at 100%, no inhibition set to 0%, and a curve fit parameter set at 1. The inflection point was reported as the estimated IC50.

Lyn = Lyn (Homo sapiens, UniProt P07948); assay: as above; format: biochemical; design: purchased Millipore (assay service); details: estimated from inhibition at three compound concentrations; ATP at the Km
Procedure: as §2, §3

Ret = Ret (Homo sapiens, UniProt P07949); assay: as above; format: biochemical; design: purchased Millipore (assay service); details: estimated from inhibition at three compound concentrations; ATP at the Km
Procedure: as §2, §3

TRKA = TRKA (Homo sapiens, UniProt P04629); assay: as above; format: biochemical; design: purchased Millipore (assay service); details: estimated from inhibition at three compound concentrations; ATP at the Km
Procedure: as §2, §3

Aurora A = target: T2, Aurora A (Homo sapiens, UniProt O14965); assay: Aurora A Inhibition Assay (Z-Lyte); format: biochemical; details: 20 μM ATP, 12 nM Aurora A; read-out: Aurora A IC50 Ranges
T2 construct: purchased Invitrogen PV3612
T2 sequence (O14965 1-403): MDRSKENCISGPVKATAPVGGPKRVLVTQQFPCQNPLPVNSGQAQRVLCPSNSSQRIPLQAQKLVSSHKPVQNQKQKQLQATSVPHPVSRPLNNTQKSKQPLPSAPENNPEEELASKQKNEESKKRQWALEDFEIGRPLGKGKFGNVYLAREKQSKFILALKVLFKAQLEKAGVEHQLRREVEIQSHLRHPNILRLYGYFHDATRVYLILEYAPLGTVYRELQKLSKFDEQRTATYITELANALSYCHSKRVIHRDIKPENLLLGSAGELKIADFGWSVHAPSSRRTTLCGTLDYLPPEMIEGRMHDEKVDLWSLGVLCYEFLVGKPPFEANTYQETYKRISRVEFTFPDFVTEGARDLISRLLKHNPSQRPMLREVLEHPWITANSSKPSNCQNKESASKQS
Procedure: as §1, with “Aurora A” for “PLK2”, “Invitrogen.” for “Invitrogen (cat #PV3802).”, “20” for “60”, “12” for “133”, “#PV3612).” for “#PV4204).”

FLT-1 = target: T3, FLT-1 (Homo sapiens, UniProt P17948); assay: Millipore kinase assay, radiolabelled phosphopeptide filter binding, IC50 estimate; format: biochemical; details: estimated from inhibition at three compound concentrations; ATP at the Km
T3 construct: purchased Millipore (assay service)
Procedure: as §2, §3

FGFR1 = assay: as above; format: biochemical; details: estimated from inhibition at three compound concentrations; ATP at the Km
Procedure: as §2, §3

KDR = target: T4, KDR (Homo sapiens, UniProt P35968); assay: as above; format: biochemical; details: estimated from inhibition at three compound concentrations; ATP at the Km
T4 construct: purchased Millipore (assay service)
Procedure: as §2, §3

PDGFRβ = target: T5, PDGFRβ (Homo sapiens, UniProt P09619); assay: as above; format: biochemical; details: estimated from inhibition at three compound concentrations; ATP at the Km
T5 construct: purchased Millipore (assay service)
Procedure: as §2, §3

Aurora B = target: T6, Aurora B (Homo sapiens, UniProt Q96GD4); assay: Aurora B Inhibition Assay (Z-Lyte); format: biochemical; details: 128 μM ATP, 28 nM Aurora B; read-out: Aurora B IC50 Ranges
T6 construct: purchased Invitrogen PV3970
Procedure: as §1, with “Aurora B” for “PLK2”, “Invitrogen.” for “Invitrogen (cat #PV3802).”, “128” for “60”, “28” for “133”, “#PV3970).” for “#PV4204).”

human PLK4 = target: T7, human PLK4 (Homo sapiens, UniProt O00444); assay: PLK4 Inhibition Assay (indirect ELISA); format: biochemical; details: 15 μM ATP, 4 nM GST-PLK4; read-out: PLK4 IC50 Ranges
T7 construct: amino terminal GST fusion of residues 1-391 of human PLK4; made in house; host or cells: E. coli
T7 sequence (O00444 1-391): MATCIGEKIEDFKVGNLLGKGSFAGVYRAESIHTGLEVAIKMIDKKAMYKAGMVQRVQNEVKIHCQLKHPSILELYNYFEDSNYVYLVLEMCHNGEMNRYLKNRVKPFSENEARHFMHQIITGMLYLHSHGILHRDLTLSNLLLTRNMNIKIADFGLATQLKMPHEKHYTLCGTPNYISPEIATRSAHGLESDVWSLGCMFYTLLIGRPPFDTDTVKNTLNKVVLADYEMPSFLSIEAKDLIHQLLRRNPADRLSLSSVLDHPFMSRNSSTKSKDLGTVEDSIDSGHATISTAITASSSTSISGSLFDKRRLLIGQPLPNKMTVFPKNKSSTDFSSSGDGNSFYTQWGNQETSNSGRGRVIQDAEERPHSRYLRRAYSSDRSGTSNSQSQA
Summary of the method: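 Dephosphorylated (lambda phosphatase) GST-PLK4 activity read by indirect ELISA. Compounds were pre-incubated with enzyme for 15 minutes before ATP was added. IC50 came from a non-linear 4-point logistic fit.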

HUV-EC-C cells = assay: In Vitro Angiogenesis Assay (tube formation); format: cell-based; details: 4 hr incubation, 8,000 cells per well, FIG. 1
Procedure: HUV-EC-C cells were obtained from the American Type Culture Collection (ATCC, CRL-1730), and were used at early passage for the assay. The in vitro Angiogenesis Assay Kit (Chemicon) was used according to the manufacturer's recommendation. An ice-cold mixture of ECMatrix was transferred into a precooled 96-well plate. After the matrix solution had solidified (>1 hr incubation at 37° C.), 8,000 cells were mixed with the appropriate inhibitor concentration (in 100 microliters EGM-2) and plated into each well. After incubation at 37° C. for 4 hr, tube formation was inspected. Two methods, pattern recognition and branch point counting, were used to quantify the progression of angiogenesis and expressed as a percentage of the control tube count (FIG. 1).

T1 sequence (Q9NYY3 whole entry): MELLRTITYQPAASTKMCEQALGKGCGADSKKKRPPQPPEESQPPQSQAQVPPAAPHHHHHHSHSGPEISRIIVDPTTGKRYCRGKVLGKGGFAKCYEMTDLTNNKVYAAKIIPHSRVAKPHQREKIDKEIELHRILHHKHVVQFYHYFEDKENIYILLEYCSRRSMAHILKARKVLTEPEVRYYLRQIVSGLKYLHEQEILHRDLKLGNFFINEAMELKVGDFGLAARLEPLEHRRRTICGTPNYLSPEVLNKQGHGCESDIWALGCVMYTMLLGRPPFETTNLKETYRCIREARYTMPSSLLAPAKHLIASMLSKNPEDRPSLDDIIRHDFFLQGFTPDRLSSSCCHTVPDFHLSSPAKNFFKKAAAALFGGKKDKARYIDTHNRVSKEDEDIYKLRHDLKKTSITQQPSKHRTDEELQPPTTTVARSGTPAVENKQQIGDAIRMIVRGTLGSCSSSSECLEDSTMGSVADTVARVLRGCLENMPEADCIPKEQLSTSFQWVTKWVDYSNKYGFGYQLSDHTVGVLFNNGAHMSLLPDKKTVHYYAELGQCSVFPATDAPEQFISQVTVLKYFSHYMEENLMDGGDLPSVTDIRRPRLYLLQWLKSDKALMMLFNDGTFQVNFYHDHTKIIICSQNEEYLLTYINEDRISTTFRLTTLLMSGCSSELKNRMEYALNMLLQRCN
T5 sequence (P09619 33-1106): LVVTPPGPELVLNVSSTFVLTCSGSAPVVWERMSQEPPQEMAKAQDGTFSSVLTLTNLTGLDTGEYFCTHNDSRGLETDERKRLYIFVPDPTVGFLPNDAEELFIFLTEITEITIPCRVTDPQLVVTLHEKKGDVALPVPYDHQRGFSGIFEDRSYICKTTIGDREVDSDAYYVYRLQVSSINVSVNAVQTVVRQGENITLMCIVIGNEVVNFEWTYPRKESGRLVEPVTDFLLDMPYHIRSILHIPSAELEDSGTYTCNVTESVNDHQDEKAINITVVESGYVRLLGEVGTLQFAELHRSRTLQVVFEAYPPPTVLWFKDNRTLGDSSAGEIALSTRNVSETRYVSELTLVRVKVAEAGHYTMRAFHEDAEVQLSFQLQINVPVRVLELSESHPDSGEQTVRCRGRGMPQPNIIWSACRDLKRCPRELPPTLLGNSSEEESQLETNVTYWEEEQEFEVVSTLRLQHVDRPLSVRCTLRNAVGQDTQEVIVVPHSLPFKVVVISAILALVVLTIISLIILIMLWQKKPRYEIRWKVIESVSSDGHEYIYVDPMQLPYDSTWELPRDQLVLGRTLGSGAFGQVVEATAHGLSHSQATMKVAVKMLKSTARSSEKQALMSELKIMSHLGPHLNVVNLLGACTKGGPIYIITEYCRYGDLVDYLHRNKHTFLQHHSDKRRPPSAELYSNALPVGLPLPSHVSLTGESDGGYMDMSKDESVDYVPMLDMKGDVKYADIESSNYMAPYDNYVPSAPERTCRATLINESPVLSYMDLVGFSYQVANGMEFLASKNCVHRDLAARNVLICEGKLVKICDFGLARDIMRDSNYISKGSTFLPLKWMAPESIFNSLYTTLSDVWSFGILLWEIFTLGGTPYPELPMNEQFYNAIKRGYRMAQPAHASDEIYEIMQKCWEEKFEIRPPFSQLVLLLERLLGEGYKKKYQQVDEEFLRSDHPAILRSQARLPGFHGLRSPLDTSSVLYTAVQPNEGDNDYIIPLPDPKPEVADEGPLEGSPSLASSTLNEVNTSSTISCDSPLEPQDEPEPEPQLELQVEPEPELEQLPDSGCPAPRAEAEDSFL
Sequence of Lyn (P07948 whole entry): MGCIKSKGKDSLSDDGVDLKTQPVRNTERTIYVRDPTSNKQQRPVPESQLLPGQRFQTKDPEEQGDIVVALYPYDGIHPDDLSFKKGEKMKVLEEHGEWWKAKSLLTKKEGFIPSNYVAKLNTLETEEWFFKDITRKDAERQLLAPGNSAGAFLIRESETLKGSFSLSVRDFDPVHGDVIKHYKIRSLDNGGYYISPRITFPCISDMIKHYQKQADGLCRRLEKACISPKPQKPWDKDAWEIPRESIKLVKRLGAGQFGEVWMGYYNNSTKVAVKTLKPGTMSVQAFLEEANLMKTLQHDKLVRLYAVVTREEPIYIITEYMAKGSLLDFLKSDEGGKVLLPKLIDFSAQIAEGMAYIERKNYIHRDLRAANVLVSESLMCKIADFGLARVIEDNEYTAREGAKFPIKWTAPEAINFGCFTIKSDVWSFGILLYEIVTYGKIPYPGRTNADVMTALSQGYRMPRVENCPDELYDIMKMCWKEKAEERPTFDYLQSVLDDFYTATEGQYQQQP
Sequence of TRKA (P04629 33-796): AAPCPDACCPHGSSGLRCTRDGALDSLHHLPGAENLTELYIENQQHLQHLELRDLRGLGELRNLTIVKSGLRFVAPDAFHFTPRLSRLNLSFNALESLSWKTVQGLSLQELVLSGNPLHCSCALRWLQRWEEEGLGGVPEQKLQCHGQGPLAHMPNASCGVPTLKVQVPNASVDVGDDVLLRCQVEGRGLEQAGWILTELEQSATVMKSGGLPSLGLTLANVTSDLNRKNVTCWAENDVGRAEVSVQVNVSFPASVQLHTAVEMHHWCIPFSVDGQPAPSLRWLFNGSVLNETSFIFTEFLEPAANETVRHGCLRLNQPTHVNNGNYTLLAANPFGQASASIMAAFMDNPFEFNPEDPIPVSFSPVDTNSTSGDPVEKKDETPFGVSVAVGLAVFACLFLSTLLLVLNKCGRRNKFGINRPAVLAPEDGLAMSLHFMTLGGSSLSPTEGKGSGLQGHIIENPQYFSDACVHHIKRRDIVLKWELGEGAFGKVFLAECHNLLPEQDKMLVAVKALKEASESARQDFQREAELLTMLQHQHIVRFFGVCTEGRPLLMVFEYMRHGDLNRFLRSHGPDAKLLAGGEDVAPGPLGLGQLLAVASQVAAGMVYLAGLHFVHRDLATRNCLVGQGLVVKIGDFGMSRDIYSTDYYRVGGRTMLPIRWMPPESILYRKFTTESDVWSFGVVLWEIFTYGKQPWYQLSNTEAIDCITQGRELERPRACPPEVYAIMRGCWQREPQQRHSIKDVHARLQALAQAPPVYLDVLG
T6 sequence (Q96GD4 whole entry): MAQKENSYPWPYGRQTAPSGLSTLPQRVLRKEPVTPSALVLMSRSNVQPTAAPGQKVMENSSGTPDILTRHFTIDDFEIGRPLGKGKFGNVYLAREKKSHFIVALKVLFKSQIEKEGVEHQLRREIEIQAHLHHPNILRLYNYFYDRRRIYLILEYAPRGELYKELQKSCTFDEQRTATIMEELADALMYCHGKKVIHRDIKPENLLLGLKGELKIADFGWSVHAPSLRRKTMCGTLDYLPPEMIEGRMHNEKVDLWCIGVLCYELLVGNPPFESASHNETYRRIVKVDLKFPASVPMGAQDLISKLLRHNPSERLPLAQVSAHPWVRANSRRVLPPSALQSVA
Sequence of Ret (P07949 29-1114): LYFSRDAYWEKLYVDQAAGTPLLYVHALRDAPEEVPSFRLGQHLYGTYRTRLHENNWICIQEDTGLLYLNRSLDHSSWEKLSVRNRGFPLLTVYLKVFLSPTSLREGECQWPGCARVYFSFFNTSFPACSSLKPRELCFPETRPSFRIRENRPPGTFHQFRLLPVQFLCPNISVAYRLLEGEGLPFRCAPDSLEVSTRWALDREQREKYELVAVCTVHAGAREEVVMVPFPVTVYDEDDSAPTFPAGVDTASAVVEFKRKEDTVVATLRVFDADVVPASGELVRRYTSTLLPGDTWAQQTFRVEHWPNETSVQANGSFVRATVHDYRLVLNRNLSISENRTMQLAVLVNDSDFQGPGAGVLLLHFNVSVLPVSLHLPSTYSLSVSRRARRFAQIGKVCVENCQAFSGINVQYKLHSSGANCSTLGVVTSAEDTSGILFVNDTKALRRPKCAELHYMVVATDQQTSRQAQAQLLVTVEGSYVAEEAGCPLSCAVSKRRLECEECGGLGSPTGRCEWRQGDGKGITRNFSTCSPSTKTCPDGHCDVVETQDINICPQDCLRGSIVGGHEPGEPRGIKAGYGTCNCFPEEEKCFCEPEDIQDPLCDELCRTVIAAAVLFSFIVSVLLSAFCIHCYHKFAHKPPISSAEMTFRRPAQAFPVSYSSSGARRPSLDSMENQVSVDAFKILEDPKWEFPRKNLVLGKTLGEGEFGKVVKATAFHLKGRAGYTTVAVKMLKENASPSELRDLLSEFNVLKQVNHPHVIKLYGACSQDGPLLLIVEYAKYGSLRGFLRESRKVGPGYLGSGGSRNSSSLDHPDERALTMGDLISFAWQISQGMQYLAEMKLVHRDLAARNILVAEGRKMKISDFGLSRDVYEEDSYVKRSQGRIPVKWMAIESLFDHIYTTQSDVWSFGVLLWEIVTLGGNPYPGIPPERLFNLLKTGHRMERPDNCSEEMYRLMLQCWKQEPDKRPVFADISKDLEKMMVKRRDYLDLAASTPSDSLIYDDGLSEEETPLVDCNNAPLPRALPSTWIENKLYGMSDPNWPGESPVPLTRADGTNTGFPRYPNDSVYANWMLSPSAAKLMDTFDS

**Q.** With `O=C1Nc2ccccc2/C1=C\c1ccc2c(/C=C/c3ccncc3)n[nH]c2c1` [Example A57, (E)-3-((3-((E)-2-(pyridin-4-yl)vinyl)-1H-indazol-6-yl)methylene)-indolin-2-one] as the compound, how does the inhibition at 10 µM (PLK2) read?
**A.** > 50%

**Q.** What about the IC50 (Abl) of the same compound?
**A.** < 5 µM

**Q.** And the IC50 (Lyn)?
**A.** < 5 µM

**Q.** What about the IC50 (Ret) of the same compound?
**A.** < 5 µM

**Q.** And the IC50 (TRKA)?
**A.** < 5 µM

**Q.** And the IC50 (Aurora A)?
**A.** < 5 µM

**Q.** And the IC50 (FLT-1)?
**A.** < 5 µM

**Q.** And the IC50 (FGFR1)?
**A.** < 5 µM

**Q.** What about the IC50 (KDR) of the same compound?
**A.** < 5 µM

**Q.** And the IC50 (PDGFRβ)?
**A.** < 5 µM

**Q.** What about the IC50 (Aurora B) of the same compound?
**A.** < 5 µM

**Q.** What about the IC50 (human PLK4) of the same compound?
**A.** < 5 µM

**Q.** And the “Inhibition of HUV-EC-C Cell Tube Formation (percentage of the control tube count)” value (HUV-EC-C cells)?
**A.** anti-agiogenic effects at micromolar concentrations; also recorded: inhibition of HUV-EC-C Cell Tube Formation
